System: MIA PaCa-2
Description: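 MIA PaCa-2 Tet-on shOFD1 pancreatic cancer cells (2000 cells/well, 96-well) were treated with Selleck FDA-approved library compounds at 0, 1, 5, 10, 25 and 50 µM, with extra concentrations added where needed, for 72 h at 37 °C. Knockdown wells also received 100 ng/mL doxycycline; control wells received DMSO without doxycycline. Viability was read by CCK-8 absorbance at 450 nm and normalised to DMSO control wells. IC50 was fitted in GraphPad Prism as a 4-parameter logistic with bottom fixed at 0 and top fixed at 1; at least 3 technical replicate wells per condition.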

[1] = OFD1 knockdown: no (no doxycycline)
[2] = OFD1 knockdown: yes (Tet-on shOFD1, 100 ng/mL doxycycline)

SMILES | IC50 cell viability [1] [µM] | IC50 cell viability [2] [µM]
COc1cc2nccc(Oc3ccc(NC(=O)NC4CC4)c(Cl)c3)c2cc1C(N)=O [S1164] | 21.1 | 19.7
COc1ccc(-c2nc3cc(C4=NNC(=O)CC4C)ccc3[nH]2)cc1 (centres undefined) [S1550] | 26.3 | 28.8
CCOc1ccc(Cc2cc([C@@H]3O[C@H](CO)[C@@H](O)[C@H](O)[C@H]3O)ccc2Cl)cc1 [S1548] | 16.5 | 17
COc1c(C)c2c(c(O)c1C/C=C(\C)CCC(=O)O)C(=O)OC2 [S2487] | 10.9 | 9.95
Oc1ncnc2[nH]ncc12 [S1630] | 13.5 | 13.3
CCc1ccc(CCOc2ccc(CC3SC(=O)NC3=O)cc2)nc1 (centres undefined) [S2590] | 2.72 | 3.16
CS(=O)(=O)OCCCCOS(C)(=O)=O [S1692] | 11.6 | 12.1
CS(=O)(=O)CCNCc1ccc(-c2ccc3ncnc(Nc4ccc(OCc5cccc(F)c5)c(Cl)c4)c3c2)o1 [S1028] | 16.8 | 15
COc1nc(C)cnc1NS(=O)(=O)c1cccnc1-c1ccc(-c2nnco2)cc1 [S1456] | 70.2 | 64.3
COc1cccc2c1C(=O)c1c(O)c3c(c(O)c1C2=O)C[C@@](O)(C(C)=O)C[C@@H]3O[C@H]1C[C@H](N)[C@H](O)[C@H](C)O1 [S3035] | 3.36 | 3.39
C[C@]12CCC(=O)C(O)=C1CC[C@@H]1[C@@H]2CC[C@]2(C)C(=O)CC[C@@H]12 [S2208] | 11 | 10.4
CN(N=O)C(=O)NC1C(O)OC(CO)C(O)C1O (centres undefined) [S1312] | 30.1 | 30.4
COc1cc(Nc2nc3ccccc3nc2NS(=O)(=O)c2ccc(NC(=O)c3ccc(C)c(OC)c3)cc2)cc(OC)c1 [S1523] | 47.6 | 45.5
Cc1cccc(-c2nn3c(c2-c2ccnc4ccc(C(N)=O)cc24)CCC3)n1 [S2230] | 3.61 | 3.02
CC1(COc2ccc3c(c2)ncn3-c2ccc3cccc(N4CCC(N)CC4)c3n2)COC1 [S2730] | 13.2 | 12.9
Cc1ccc(Nc2nccc(N(C)c3ccc4c(C)n(C)nc4c3)n2)cc1S(N)(=O)=O [S3012] | 14 | 12.6
CCC1=C[C@@H]2CN(C1)Cc1c([nH]c3ccccc13)[C@@](C(=O)OC)(c1cc3c(cc1OC)N(C)[C@H]1[C@@](O)(C(=O)OC)[C@H](OC(C)=O)[C@]4(CC)C=CCN5CC[C@]31[C@@H]54)C2 [S4269] | 3.46 | 3.12

SMILES | IC50 cell viability [1] [µM] | IC50 cell viability [2] [µM]
C[C@H]1C[C@H]2[C@@H]3CCC4=CC(=O)C=C[C@]4(C)[C@H]3C(=O)C[C@]2(C)[C@@]1(O)C(=O)CO [S1689] | 17.6 | 16.8
Cc1nnc(C(C)C)n1[C@H]1C[C@H]2CC[C@@H](C1)N2CC[C@H](NC(=O)C1CCC(F)(F)CC1)c1ccccc1 [S2003] | 11 | 10.3
O=C(O)C(=O)O.[NH-][C@@H]1CCCC[C@H]1[NH-].[Pt+2] [S1224] | 60.3 | 57.3
CC/C(=C(\c1ccccc1)c1ccc(OCCN(C)C)cc1)c1ccccc1 [S1972] | 42 | 36.7
CN1CC(=O)N2[C@H](c3ccc4c(c3)OCO4)c3[nH]c4ccccc4c3C[C@@H]2C1=O [S1512] | 23.7 | 23.5
O=NN(CCCl)C(=O)NC1CCCCC1 [S1840] | 18.8 | 16.9
CCCCCOC(=O)Nc1nc(=O)n([C@@H]2O[C@H](C)[C@@H](O)[C@H]2O)cc1F [S1156] | 34 | 34.3
COc1nc(N)nc2c1ncn2[C@@H]1O[C@H](CO)[C@@H](O)[C@@H]1O [S1213] | 1.66 | 1.5
Cc1cnc(Nc2ccc(OCCN3CCCC3)cc2)nc1Nc1cccc(S(=O)(=O)NC(C)(C)C)c1 [S2736] | 14.5 | 13.5
O=S(=O)(O)CCS [S1735] | 19.2 | 18.3
CC[C@@]1(O)C(=O)OCc2c1cc1n(c2=O)Cc2cc3c(CN(C)C)c(O)ccc3nc2-1 [S1231] | 54.5 | 49.8
O=C(c1cc(Cc2n[nH]c(=O)c3ccccc23)ccc1F)N1CCN(C(=O)C2CC2)CC1 [S1060] | 53.8 | 31.9
NC(=O)NO [S1896] | 4.41 | 4.33
CC(C)(C#N)c1cc(Cn2cncn2)cc(C(C)(C)C#N)c1 [S1188] | 47.1 | 59.2
Cc1ccc([C@@H]2O[C@H](CO)[C@@H](O)[C@H](O)[C@H]2O)cc1Cc1ccc(-c2ccc(F)cc2)s1 [S2760] | 21.9 | 21.6
CC1(C)CCC(c2ccc(Cl)cc2)=C(CN2CCN(c3ccc(C(=O)NS(=O)(=O)c4ccc(N[C@H](CCN5CCOCC5)CSc5ccccc5)c(S(=O)(=O)C(F)(F)F)c4)cc3)CC2)C1 [S1001] | 18.7 | 19

Next, values leading:

IC50 cell viability [1] [µM] | IC50 cell viability [2] [µM] | SMILES
15.7 | 15.5 | Nc1cccc2c1C(=O)N(C1CCC(=O)NC1=O)C2=O (centres undefined) [S1567]
2.71 | 2.5 | CC(C)C(=O)Nc1ccc([N+](=O)[O-])c(C(F)(F)F)c1 [S1908]
1.85 | 1.52 | COc1cccc2c1C(=O)c1c(O)c3c(c(O)c1C2=O)CC(O)(C(=O)CO)CC3OC1CC(N)C(O)C(C)O1 (centres undefined) [S1208]
8.62 | 7.63 | CN(CCOc1ccc(CC2SC(=O)NC2=O)cc1)c1ccccn1 (centres undefined) [S2556]
0.55 | 0.53 | Nc1nc(Cl)nc2c1ncn2[C@@H]1O[C@H](CO)[C@@H](O)[C@@H]1F [S1218]
59.1 | 65.3 | C#Cc1cccc(Nc2ncnc3cc(OCCOC)c(OCCOC)cc23)c1 [S1023]
1.35 | 1.14 | C#Cc1cccc(Nc2ncnc3cc(OC)c(OCCCCCCC(=O)NO)cc23)c1 [S1194]
19.6 | 17.9 | N#CC[C@H](C1CCCC1)n1cc(-c2ncnc3[nH]ccc23)cn1 [S2902]
1.56 | 1.3 | CCOc1nc2cccc(C(=O)O)c2n1Cc1ccc(-c2ccccc2-c2nnn[nH]2)cc1 [S1578]
10.2 | 7.9 | CS(=O)(=O)N1CCN(Cc2cc3nc(-c4cccc5[nH]ncc45)nc(N4CCOCC4)c3s2)CC1 [S1065]
13.1 | 12.1 | CC1(C)CCC(CN2CCN(c3ccc(C(=O)NS(=O)(=O)c4ccc(NCC5CCOCC5)c([N+](=O)[O-])c4)c(Oc4cnc5[nH]ccc5c4)c3)CC2)=C(c2ccc(Cl)cc2)C1 [S8048]
38.1 | 37.8 | C[C@]12CC[C@@H]3c4ccc(O)cc4CC[C@H]3[C@@H]1CCC2=O [S1665]
1.56 | 1.28 | CNC(=O)c1cc(Oc2ccc(NC(=O)Nc3ccc(Cl)c(C(F)(F)F)c3)c(F)c2)ccn1 [S1178]
69.1 | 51.3 | NC(=O)c1ccc(I)c([N+](=O)[O-])c1 [S1087]
3.67 | 3.5 | O=C(/C=C/c1cccc(S(=O)(=O)Nc2ccccc2)c1)NO [S1085]
10.2 | 8.9 | CC(=O)O[C@]1(C(C)=O)CC[C@H]2[C@@H]3C[C@H](C)C4=CC(=O)CC[C@]4(C)[C@H]3CC[C@@]21C [S2567]
22.1 | 20.1 | CN1CCN(c2nc(C3=C(c4c[nH]c5ccccc45)C(=O)NC3=O)c3ccccc3n2)CC1 [S2791]
51.2 | 49.6 | CC(=O)OCC(=O)[C@@]1(O)[C@H](C)C[C@H]2[C@@H]3CCC4=CC(=O)C=C[C@]4(C)[C@@]3(F)[C@@H](O)C[C@@]21C [S3124]
12 | 11.3 | Cn1nnc2c(C(N)=O)ncn2c1=O [S1237]
70.7 | 65 | NC(=O)C1CCCc2c1[nH]c1ccc(Cl)cc21 (centres undefined) [S1541]
17.9 | 17.7 | O=c1sn(-c2cccc3ccccc23)c(=O)n1Cc1ccccc1 [S2823]
2.19 | 2.38 | C[C@@H]1CCN(C(=O)CC#N)C[C@@H]1N(C)c1ncnc2[nH]ccc12 [S2789]
23.9 | 21.9 | CC(=O)Nc1cccc(-n2c(=O)n(C3CC3)c(=O)c3c(Nc4ccc(I)cc4F)n(C)c(=O)c(C)c32)c1 [S2673]
11.4 | 9.5 | C=CC(=O)Nc1cc(Nc2nccc(-c3cn(C)c4ccccc34)n2)c(OC)cc1N(C)CCN(C)C [S7297]
2.22 | 1.71 | COc1cc2ncnc(Nc3ccc(F)c(Cl)c3)c2cc1OCCCN1CCOCC1 [S1025]
4.3 | 3.52 | COCCCOc1cc(C[C@@H](C[C@H](N)[C@@H](O)C[C@H](C(=O)NCC(C)(C)C(N)=O)C(C)C)C(C)C)ccc1OC [S2199]
68.8 | 66.2 | Cc1ccc(NC(=O)c2ccc(CN3CCN(C)CC3)cc2)cc1Nc1nc(-c2cccnc2)cs1 [S1064]
1.29 | 1.07 | Nc1ccccc1NC(=O)c1ccc(CNc2nccc(-c3cccnc3)n2)cc1 [S1122]
10 | 7.5 | COc1cc2nccc(Oc3ccc(NC(=O)Nc4cc(C)on4)c(Cl)c3)c2cc1OC [S1207]
